# Tested on: T1, EPSPS (5-enolpyruvlshikimate-3-phosphate synthase), Golf biotypes
# T1 construct: native enzyme in leaf extract, not purified to homogeneity
# Assay: EPSPS activity in leaf extract, phosphate release (EnzChek Phosphate Assay)
# Type: biochemical, Lolium perenne
# Conditions: S-Golf biotype; 0-1000 μM glyphosate; log-logistic fit; unit from Methods (table footnote with unit not in the material); read-out: EPSPS activity^c / I50
# Description: EPSPS activity in leaf extract, phosphate release (EnzChek Phosphate Assay) on EPSPS (5-enolpyruvlshikimate-3-phosphate synthase), Golf biotypes
smiles,measurement,value
"O=C(O)CNCP(=O)(O)O [glyphosate, N-phosphonomethyl glycine]",IC50,3.2 ± 0.3 µM

# — PMC5651048, “Differential Resistance Mechanisms to Glyphosate Result in Fitness Cost for Lolium perenne and L. multiflorum” (Frontiers in Plant Science, 2017)
